Reference: PMC9307983 (Acta Naturae, 2022)

What was measured:
MGL, Ser339Ala = MGL, Ser339Ala (Citrobacter freundii, UniProt Q84AR1, S339A); experiment: biochemical; type: biochemical
Procedure: The kinetic parameters of the γ- and β-elimination reactions were determined at 30°C in the conjugate reaction with HOHxoDH or LDH based on a decrease in NADH absorbance at 340 nm (Δε = 6,220 M^–1cm^–1). The reaction mixtures contained a 100-mM potassium phosphate buffer, pH 8.0, 0.1 mM PLP, 1 mM DTT, 0.2 mM NADH, 70 μg HOHxoDH or 10 U LDH, and variable amounts of the substrate in a total volume of 1 mL. The reaction was initiated by the addition of 10 μg of the enzyme.
The kinetic parameters were calculated according to the Michaelis–Menten equation using the EnzFitter software. In the calculations, an enzyme subunit molecular weight of 43 kDa was used. The inhibition constants were also determined using the EnzFitter software.

Ser339Ala MGL = Ser339Ala MGL (Citrobacter freundii, UniProt Q84AR1, S339A); experiment: coenzyme (PLP) dissociation constant by ultrafiltration, Ser339Ala MGL apoenzyme; type: binding; conditions: mutant enzyme, pH 8.0, 30°C, Scatchard coordinates
Procedure: The apoenzyme and holoenzyme were prepared in a 50-mM potassium phosphate buffer, pH 8.0, containing 1 mM DTT and 1 mM EDTA. The holoenzyme was prepared by adding a 50-fold molar excess of PLP. The mixture was incubated at 25°C for 1 h. The excess PLP was removed by dialysis. The apoenzyme was prepared by adding a 100-fold molar excess of DL-penicillamine to the sample [42]. The mixture was incubated at 25°C for 1 h. DL-Penicillamine was removed by dialysis. The procedure was repeated until the enzyme activity decreased to 1% of the initial activity. The PLP content in the sample was determined in 100 mM NaOH using the molar extinction coefficient of PLP at 390 nm (ε = 6,600 M^–1cm^–1 [43]).
The PLP dissociation constant was determined by ultrafiltration. Varying amounts of PLP (in a range of 5 × 10^–3 to 1.2 × 10^–1 mM) were added to the 8 × 10^–3 mM apoenzyme in a 50-mM potassium phosphate buffer, pH 8.0, containing 1 mM DTT and 1 mM EDTA. After incubation at 30°C for 30 min, free PLP was separated by centrifugation in a Centricon-30 microconcentrator (Amicon, United States) at 5,000 rpm and 4°C for 5 min. The PLP content in each sample was determined in 100 mM NaOH. The data were processed in Scatchard coordinates.

CSCC[C@H](N)C(=O)O = experiment: purified protein, by the assay type; conditions: other: Ser339Ala MGL, 30°C, pH 8.0, coupled with HOHxoDH or LDH

For `C[C@H](N)C(=O)O` [L-Ala, L-alanine], the Ki (MGL, Ser339Ala) was 1250 ± 320 µM.

Work on `Cc1ncc(COP(=O)(O)O)c(C=O)c1O` [PLP, pyridoxal 5’-phosphate] yielded a Kd (Ser339Ala MGL) of 1.01 µM.

Work on “MGL, Ser339Ala (Citrobacter freundii; S339A)” yielded a Km (CSCC[C@H](N)C(=O)O) of 1840 ± 150 µM and a kcat (CSCC[C@H](N)C(=O)O) of 0.21 s⁻¹.
